According to the supplement of paper PMC10307832:

How the values were obtained:
Test in all cases: relative viability (nuclei count vs DMSO), 5 days (fraction); higher = more cells survive
[1] = compound: CC1=C(C(=O)N2C=CSC2=N1)CCN3CCC(=C(C4=CC=CC=C4)C5=CC=C(C=C5)F)CC3
In short: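 Lung cancer cell lines in 1536-well plates were exposed by pinning to five library-drug doses (not always all listed) √10 apart, following an overnight hold at 37 °C. MetaXpress counted Hoechst-stained nuclei from 4× images taken after 5 days without medium change. Viability is the median ratio of treated-well to vehicle-well nuclei across plates. Plates required control CV below 25% and at least one doubling.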

[2] = compound: CC1=C(C(=O)N2C=CSC2=N1)CCN3CCC(=C(C4=CC=CC=C4)C5=CC=C(C=C5)F)CC3 + COc1cccc2cc(-c3nc([C@H]4CC[C@H](C(=O)O)CC4)n4ncnc(N)c34)[nH]c12 [OSI-027] (partner 0.5 µM)
In short: (§1)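 Five library-drug doses in √10 steps were combined with a fixed anchor-drug dose, or a single drug was given alone, by pin tool to lung cancer cell lines in 1536-well plates the day after seeding. Nuclei were stained and counted after 5 days. Relative viability is the nuclei count in treated wells over that in vehicle wells, taken as the median of duplicate plates.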

[3] = compound: CC1=C(C(=O)N2C=CSC2=N1)CCN3CCC(=C(C4=CC=CC=C4)C5=CC=C(C=C5)F)CC3 + CC(=O)c1c(C)c2cnc(Nc3ccc(N4CCNCC4)cn3)nc2n(C2CCCC2)c1=O [Palbociclib] (partner 0.5 µM)
In short: as §1

[4] = compound: CC1=C(C(=O)N2C=CSC2=N1)CCN3CCC(=C(C4=CC=CC=C4)C5=CC=C(C=C5)F)CC3 + COc1cc2c(Oc3ccc(NC(=O)C4(C(=O)Nc5ccc(F)cc5)CC4)cc3F)ccnc2cc1OCCCN1CCOCC1 [Foretinib] (partner 0.25 µM)
In short: as §1

| Cell Line | relative viability ([1]; 0.08 µM) | relative viability ([1]; 0.253 µM) | relative viability ([1]; 0.8 µM) | relative viability ([1]; 2.53 µM) | relative viability ([1]; 8 µM) | relative viability ([2]; first compound 0.08 µM) | relative viability ([2]; first compound 0.253 µM) | relative viability ([2]; first compound 0.8 µM) | relative viability ([2]; first compound 2.53 µM) | relative viability ([2]; first compound 8 µM) | relative viability ([3]; first compound 0.08 µM) | relative viability ([3]; first compound 0.253 µM) | relative viability ([3]; first compound 0.8 µM) | relative viability ([3]; first compound 2.53 µM) | relative viability ([3]; first compound 8 µM) | relative viability ([4]; first compound 0.08 µM) | relative viability ([4]; first compound 0.253 µM) | relative viability ([4]; first compound 0.8 µM) | relative viability ([4]; first compound 2.53 µM) | relative viability ([4]; first compound 8 µM) |
| --- | --- | --- | --- | --- | --- | --- | --- | --- | --- | --- | --- | --- | --- | --- | --- | --- | --- | --- | --- | --- |
| NCI-H1650 | 0.794 | 0.982 | 0.875 | 0.997 | 0.642 | 0.539 | 0.736 | 0.583 | 0.561 | 0.353 | 0.395 | 0.345 | 0.313 | 0.383 | 0.348 | 1.09 | 1.12 | 1.15 | 1.21 | 0.65 |
| NCI-H1651 | 0.823 | 0.968 | 0.976 | 1.01 | 0.72 | 0.71 | 0.768 | 0.698 | 0.697 | 0.461 | 0.499 | 0.534 | 0.508 | 0.517 | 0.481 | 0.747 | 0.884 | 0.912 | 0.822 | 0.558 |
| NCI-H1666 | 0.936 | 0.941 | 0.978 | 1.06 | 0.815 | 0.872 | 0.913 | 0.731 | 0.8 | 0.606 | 0.663 | 0.616 | 0.627 | 0.739 | 1.01 | 0.924 | 0.956 | 0.949 | 1.04 | 0.798 |
| NCI-H1734 | 0.975 | 1.08 | 0.976 | 0.955 | 0.62 | 0.549 | 0.571 | 0.564 | 0.576 | 0.416 | 0.367 | 0.342 | 0.324 | 0.318 | 0.378 | 0.991 | 0.913 | 0.72 | 0.992 | 0.555 |
| NCI-H1755 | 0.926 | 0.998 | 1.04 | 1.02 | 0.777 | 0.744 | 0.861 | 0.664 | 0.68 | 0.672 | 0.433 | 0.429 | 0.395 | 0.426 | 0.432 | 0.907 | 0.888 | 0.892 | 0.912 | 0.762 |
| NCI-H1793 | 0.761 | 0.891 | 0.912 | 0.831 | 0.711 | 0.302 | 0.3 | 0.261 | 0.293 | 0.186 | 0.212 | 0.311 | 0.272 | 0.345 | 0.318 | 0.601 | 0.866 | 0.795 | 0.624 | 0.44 |
| NCI-H1915 | 1.07 | 1 | 1.01 | 1.01 | 0.732 | 0.758 | 0.599 | 0.589 | 0.642 | 0.464 | 0.559 | 0.542 | 0.496 | 0.498 | 0.397 | 1.1 | 0.964 | 1.1 | 1.18 | 0.535 |
| NCI-H1944 | 0.969 | 0.94 | 0.96 | 0.958 | 0.751 | 0.408 | 0.42 | 0.37 | 0.426 | 0.31 | 0.305 | 0.31 | 0.341 | 0.29 | 0.259 | 0.8 | 1.12 | 0.891 | 0.862 | 0.539 |
| NCI-H1975 | 0.893 | 0.961 | 1 | 0.992 | 0.662 | 0.912 | 0.673 | 0.679 | 0.836 | 0.437 | 0.601 | 0.493 | 0.598 | 0.795 | 0.348 | 1.04 | 0.664 | 0.965 | 1.21 | 0.591 |
| NCI-H1993 | 0.972 | 0.816 | 0.862 | 1.03 | 0.866 | 0.611 | 0.498 | 0.546 | 0.58 | 0.626 | 0.583 | 0.619 | 0.592 | 0.705 | 0.614 | 0.701 | 0.677 | 0.757 | 0.915 | 0.682 |
| NCI-H2009 | 1.06 | 1.07 | 0.999 | 1.05 | 0.871 | 0.638 | 0.619 | 0.616 | 0.637 | 0.527 | 0.231 | 0.175 | 0.186 | 0.204 | 0.21 | 1.33 | 1.24 | 1.18 | 1.26 | 1.13 |
| NCI-H2023 | 0.997 | 0.884 | 0.991 | 1.11 | 0.695 | 0.4 | 0.404 | 0.386 | 0.39 | 0.301 | 0.386 | 0.316 | 0.427 | 0.389 | 0.299 | 0.831 | 0.713 | 0.758 | 0.984 | 0.621 |
| NCI-H2085 | 1 | 1.07 | 1.04 | 0.973 | 0.82 | 0.818 | 0.704 | 0.87 | 0.799 | 0.464 | 0.498 | 0.506 | 0.474 | 0.533 | 0.469 | 0.882 | 1.05 | 1.07 | 1.05 | 0.7 |
| NCI-H2087 | 0.878 | 1.22 | 1.13 | 0.933 | 0.62 | 0.364 | 0.587 | 0.696 | 0.566 | 0.237 | 0.279 | 0.237 | 0.236 | 0.227 | 0.238 | 0.989 | 1.2 | 1.17 | 1.24 | 0.528 |
| NCI-H2126 | 0.966 | 0.991 | 1.05 | 1.04 | 0.914 | 0.719 | 0.753 | 0.699 | 0.779 | 0.792 | 0.367 | 0.343 | 0.359 | 0.367 | 0.344 | 1.08 | 1.1 | 1.19 | 1.22 | 0.927 |
| NCI-H2170 | 0.768 | 0.9 | 1.02 | 1 | 0.697 | 0.774 | 0.673 | 0.734 | 0.726 | 0.604 | 0.396 | 0.405 | 0.36 | 0.37 | 0.344 | 0.874 | 1.03 | 1.11 | 1.06 | 0.674 |
| NCI-H2228 | 1.02 | 0.978 | 1.15 | 1.1 | 0.597 | 0.567 | 0.532 | 0.632 | 0.597 | 0.378 | 0.56 | 0.68 | 0.723 | 0.468 | 0.432 | 0.689 | 0.645 | 1.13 | 0.864 | 0.55 |
| NCI-H2342 | 0.761 | 1.03 | 0.949 | 1.02 | 0.792 | 0.567 | 0.617 | 0.636 | 0.602 | 0.622 | 0.48 | 0.487 | 0.548 | 0.519 | 0.528 | 0.884 | 1.02 | 0.948 | 1.09 | 0.857 |
| NCI-H2347 | 0.964 | 1.07 | 1.04 | 1.05 | 0.775 | 0.371 | 0.425 | 0.406 | 0.332 | 0.349 | 0.358 | 0.428 | 0.434 | 0.442 | 0.461 | – | 0.835 | 0.523 | 1.16 | 0.837 |
| NCI-H2405 | 0.967 | 0.975 | 0.99 | 1.11 | 0.82 | 0.664 | 0.614 | 0.677 | 0.624 | 0.606 | 0.609 | – | 0.547 | 0.576 | 0.476 | 1.08 | 1.03 | 1.09 | 1.04 | 0.969 |
| NCI-H3122 | 0.951 | 1.04 | 1.01 | 1.12 | 0.715 | 0.916 | 1.02 | 1.11 | 1.07 | 0.596 | 0.178 | 0.213 | 0.192 | 0.164 | 0.157 | 1.01 | 1.1 | 0.931 | 0.991 | 0.91 |
| PC-3 [JPC-3] | 0.987 | 0.939 | 1.04 | 1.08 | 0.839 | 0.783 | 0.662 | 0.831 | 0.772 | 0.633 | 0.58 | – | 0.576 | 0.596 | 0.579 | 1.01 | 0.885 | 1.05 | 1.17 | 0.93 |
| PC-14 | 0.939 | 1.02 | 1.06 | 1.1 | 0.624 | 0.529 | 0.981 | 1.04 | 1.17 | 0.507 | 0.358 | 0.574 | 0.455 | 0.622 | 0.328 | 0.783 | 0.999 | 1 | 0.828 | 0.783 |
| RERF-LC-KJ | 0.932 | 1.01 | 0.964 | 0.989 | 0.662 | 0.411 | 0.583 | 0.546 | 0.523 | 0.497 | 1.18 | 1.04 | 0.97 | 0.991 | 0.637 | 0.794 | 0.92 | 0.917 | 0.846 | 0.561 |
| SK-LU-1 | 0.845 | 0.955 | 1.18 | 1.15 | 0.648 | 0.396 | 0.341 | 0.38 | 0.318 | 0.294 | 0.378 | 0.375 | 0.406 | 0.416 | 0.36 | 0.909 | 0.597 | 1.01 | 1.12 | 0.581 |
| SK-MES-1 | 1.02 | 1.01 | 1.03 | 1.09 | 0.692 | 0.405 | 0.524 | 0.587 | 0.554 | 0.706 | 0.299 | 0.288 | 0.294 | 0.336 | 0.305 | 0.979 | 1.07 | 0.928 | 0.731 | 0.864 |
| SW 1573 | 0.892 | 1.12 | 1.08 | 1.04 | 0.61 | – | 0.645 | 0.716 | 0.676 | 0.351 | 0.346 | 0.359 | 0.407 | 0.382 | 0.286 | 1.07 | 0.829 | 0.814 | 0.947 | 0.72 |
| UMC-11 | 0.914 | 0.952 | 0.936 | 1.17 | 0.713 | 0.591 | 0.469 | 0.504 | 0.48 | 0.351 | 0.309 | 0.321 | 0.272 | 0.321 | 0.328 | 0.948 | 1.07 | 1.08 | 1.18 | 0.692 |
